Measurements from US9365566B2 (Takeda Pharmaceutical Company Limited, priority 2012, dated 2016).

Molecular target: T1, human BTK (Homo sapiens, UniProt Q06187)
T1 construct: GST (Glutathione-S-Transferase) (cleaved yes); made in house; host or cells: Spodoptera frugiperda Sf9 cells (baculovirus, Bac-to-Bac)
Assay: BTK inhibition assay: BTK-mediated phosphorylation of FAM-labeled substrate 5-FAM-EEPLYWSFPAKKK-NH2 (Caliper LC-3000)
Type: biochemical
Details: pIC50 = -log(IC50), IC50 molar; residues 382 to 659 of human BTK; incubated at room temperature for 60 minutes; larger values represent higher potency
Text: The activity of compounds as BTK inhibitors may be determined by a variety of methods, including in vitro and in vivo methods.
This construct engineers an in-frame translational fusion with the Glutathione-S-Transferase (GST) protein for use in affinity purification. The fusion protein derived from this construct contains a protease recognition sequence to liberate the BTK from the GST affinity tag. High-titer baculoviral stocks, generated using the Bac-to-Bac® system (Invitrogen), are used to express the recombinant protein in Spodoptera frugiperda Sf9 cells in 10 L Wave bags. Recombinant proteins are isolated from cellular extracts by passage over Glutathione Sepharose 4B (GE Healthcare) and the BTK moiety is released from the GST affinity tag by treatment with PreScission protease. The BTK recombinant protein is further purified by size exclusion chromatography (HiLoad 16/60 Superdex 200, GE Healthcare) in a buffer containing 20 mM Hepes (pH 7.4), 50 mM NaCl, 10 mM MgCl2, 0.25 mM TCEP and 0.1 mM EDTA. The purity of the fractions is assessed by SDS PAGE and the peak protein fractions are pooled and concentrated using Amicon Ultra-15 Centrifugal Filter Devices (Millipore).
The inhibitory properties of compounds relative to BTK is determined using a black 384-well-plate format in a buffer which contains 50 mM Hepes, 10 mM NaCl, 10 mM MgCl2, 0.2 mM EDTA, 0.01% Brij35®, 1 mM DTT, and 0.1 mg/mL BSA at pH 7.3. The test compound is prepared in DMSO using 2-fold serial dilutions for 11 data points, which are added to the buffer so that each dilution contains 3% DMSO. […] The reaction mixtures are incubated at room temperature for 60 minutes and then quenched by adding 25 μL of 50 mM EDTA. To quantify the fluorescent-labeled substrate and product following reaction, the test plate is loaded on a Caliper LC-3000, which measures percent of conversion by microfluidic-based separation.
The compounds were tested in accordance with the assay described on page 34 of the specification.

T1 sequence (Q06187 382-659): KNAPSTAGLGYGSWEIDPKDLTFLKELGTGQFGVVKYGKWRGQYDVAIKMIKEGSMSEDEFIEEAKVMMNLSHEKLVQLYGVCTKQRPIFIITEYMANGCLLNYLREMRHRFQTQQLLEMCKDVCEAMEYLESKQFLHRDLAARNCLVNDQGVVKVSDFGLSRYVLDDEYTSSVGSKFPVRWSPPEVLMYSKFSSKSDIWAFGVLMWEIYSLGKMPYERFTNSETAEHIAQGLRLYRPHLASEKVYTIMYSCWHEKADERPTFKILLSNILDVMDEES

Row | IC50 | Structure (SMILES)
1 | 63.1 nM | NC(=O)c1nnc2c(-c3ccc4nc(NCC5CC5)[nH]c4c3)cccc2c1N [Example 65, 4-amino-8-(2-((cyclopropylmethyl)amino)-1H-benzo[d]imidazol-6-yl)cinnoline-3-carboxamide]
2 | 631 nM | CC(C)(C)Cc1nc2ccc(-c3cccc4c(N)c(C(N)=O)nnc34)cc2[nH]1 [Example 66, 4-amino-8-(2-neopentyl-1H-benzo[d]imidazol-6-yl)cinnoline-3-carboxamide]
3 | 63.1 nM | NC(=O)c1nnc2c(-c3ccc4nc(-c5cc(Cl)cc(Cl)c5)[nH]c4c3)cccc2c1N [Example 67, 4-amino-8-(2-(3,5-dichlorophenyl)-1H-benzo[d]imidazol-6-yl)cinnoline-3-carboxamide]
4 | 158 nM | NC(=O)c1nnc2c(-c3ccc4nc(C5CCCCC5)[nH]c4c3)cccc2c1N [Example 68, 4-amino-8-(2-cyclohexyl-1H-benzo[d]imidazol-6-yl)cinnoline-3-carboxamide]
5 | 31.6 nM | NC(=O)c1nnc2c(-c3ccc4nc(CCc5ccccc5)[nH]c4c3)cccc2c1N [Example 69, 4-amino-8-(2-phenethyl-1H-benzo[d]imidazol-6-yl)cinnoline-3-carboxamide]
6 | 79.4 nM | NC(=O)c1nnc2c(-c3ccc4nc(-c5ccccc5Cl)[nH]c4c3)cccc2c1N [Example 70, 4-amino-8-(2-(2-chlorophenyl)-1H-benzo[d]imidazol-6-yl)cinnoline-3-carboxamide]
7 | 316 nM | NC(=O)c1nnc2c(-c3ccc4nc(-c5cccc(C(F)(F)F)c5)[nH]c4c3)cccc2c1N [Example 71, 4-amino-8-(2-(3-(trifluoromethyl)phenyl)-1H-benzo[d]imidazol-6-yl)cinnoline-3-carboxamide]
8 | 1260 nM | NC(=O)c1nnc2c(-c3ccc4nc(C5CCCC5)[nH]c4c3)cccc2c1N [Example 72, 4-amino-8-(2-cyclopentyl-1H-benzo[d]imidazol-6-yl)cinnoline-3-carboxamide]
9 | 158 nM | NC(=O)c1nnc2c(-c3ccc4nc(-c5ccsc5)[nH]c4c3)cccc2c1N [Example 73, 4-amino-8-(2-(thiophen-3-yl)-1H-benzo[d]imidazol-6-yl)cinnoline-3-carboxamide]
10 | 79.4 nM | COc1ccc(-c2nc3ccc(-c4cccc5c(N)c(C(N)=O)nnc45)cc3[nH]2)cc1 [Example 74, 4-amino-8-(2-(4-methoxyphenyl)-1H-benzo[d]imidazol-6-yl)cinnoline-3-carboxamide]
11 | 126 nM | NC(=O)c1nnc2c(-c3ccc4nc(-c5cn6ccccc6n5)[nH]c4c3)cccc2c1N [Example 75, 4-amino-8-(2-(imidazo[1,2-a]pyridin-2-yl)-1H-benzo[d]imidazol-6-yl)cinnoline-3-carboxamide]
12 | 126 nM | NC(=O)c1nnc2c(-c3ccc4nc(-c5cccc(Cl)c5)[nH]c4c3)cccc2c1N [Example 76, 4-amino-8-(2-(3-chlorophenyl)-1H-benzo[d]imidazol-6-yl)cinnoline-3-carboxamide]
13 | 631 nM | NC(=O)c1nnc2c(-c3ccc4nc(Cc5ccccc5)[nH]c4c3)cccc2c1N [Example 77, 4-amino-8-(2-benzyl-1H-benzo[d]imidazol-6-yl)cinnoline-3-carboxamide]
14 | 79.4 nM | NC(=O)c1nnc2c(-c3ccc4nc(CC5CCCCC5)[nH]c4c3)cccc2c1N [Example 78, 4-amino-8-(2-(cyclohexylmethyl)-1H-benzo[d]imidazol-6-yl)cinnoline-3-carboxamide]
15 | 316 nM | NC(=O)c1nnc2c(-c3ccc4nc(-c5cccs5)[nH]c4c3)cccc2c1N [Example 79, 4-amino-8-(2-(thiophen-2-yl)-1H-benzo[d]imidazol-6-yl)cinnoline-3-carboxamide]
16 | 39.8 nM | Cc1cc(C)cc(-c2nc3ccc(-c4cccc5c(N)c(C(N)=O)nnc45)cc3[nH]2)c1 [Example 80, 4-amino-8-(2-(3,5-dimethylphenyl)-1H-benzo[d]imidazol-6-yl)cinnoline-3-carboxamide]
17 | 2510 nM | NC(=O)c1nnc2c(-c3ccc4nc(CC5CCOCC5)[nH]c4c3)cccc2c1N [Example 81, 4-amino-8-(2-((tetrahydro-2H-pyran-4-yl)methyl)-1H-benzo[d]imidazol-6-yl)cinnoline-3-carboxamide]
18 | 200 nM | NC(=O)c1nnc2c(-c3ccc4nc(-c5cncs5)[nH]c4c3)cccc2c1N [Example 82, 4-amino-8-(2-(thiazol-5-yl)-1H-benzo[d]imidazol-6-yl)cinnoline-3-carboxamide]
19 | 794 nM | NC(=O)c1nnc2c(-c3ccc4nc(C5CCCOC5)[nH]c4c3)cccc2c1N (centres unmarked) [Example 83, 4-amino-8-(2-(tetrahydro-2H-pyran-3-yl)-1H-benzo[d]imidazol-6-yl)cinnoline-3-carboxamide]

Continued, compound first:

Row | Structure (SMILES) | IC50
20 | Cc1ccc2c(N)c(C(N)=O)nnc2c1-c1ccc2cnn(C)c2c1 [Example 45, 4-amino-7-methyl-8-(1-methyl-1H-indazol-6-yl)cinnoline-3-carboxamide] | 100 nM
21 | COc1ccc2c(N)c(C(N)=O)nnc2c1-c1ccc2nc[nH]c2c1 [Example 46, 4-amino-8-(1H-benzo[d]imidazol-6-yl)-7-methoxycinnoline-3-carboxamide] | 63.1 nM
22 | Cc1ccc2c(N)c(C(N)=O)nnc2c1-c1cnc2[nH]ncc2c1 [Example 47, 4-amino-7-methyl-8-(1H-pyrazolo[3,4-b]pyridin-5-yl)cinnoline-3-carboxamide] | 79.4 nM
23 | Cc1ccc2c(N)c(C(N)=O)nnc2c1-c1ccc2[nH]nnc2c1 [Example 48, 4-amino-8-(1H-benzo[d][1,2,3]triazol-5-yl)-7-methylcinnoline-3-carboxamide] | 20 nM
24 | Cc1cc2[nH]ncc2cc1-c1cccc2c(N)c(C(N)=O)nnc12 [Example 49, 4-amino-8-(6-methyl-1H-indazol-5-yl)cinnoline-3-carboxamide] | 10 nM
25 | Cc1ccc2c(N)c(C(N)=O)nnc2c1-c1ccc2[nH]nc(C)c2c1 [Example 50, 4-amino-7-methyl-8-(3-methyl-1H-indazol-5-yl)cinnoline-3-carboxamide] | 100 nM
26 | COc1ccc2c(N)c(C(N)=O)nnc2c1-c1ccc2[nH]ncc2c1 [Example 51, 4-amino-8-(1H-indazol-5-yl)-7-methoxycinnoline-3-carboxamide] | 12.6 nM
27 | Cc1ccc2c(N)c(C(N)=O)nnc2c1-c1ccc2cn(C)nc2c1 [Example 52, 4-amino-7-methyl-8-(2-methyl-2H-indazol-6-yl)cinnoline-3-carboxamide] | 2510 nM
28 | Cc1cc(C)c2c(N)c(C(N)=O)nnc2c1-c1ccc2cn[nH]c2c1 [Example 53, 4-amino-8-(1H-indazol-6-yl)-5,7-dimethylcinnoline-3-carboxamide] | 50.1 nM
29 | NC(=O)c1nnc2c(-c3ccc4cn[nH]c4c3)c(Cl)ccc2c1N [Example 54, 4-amino-7-chloro-8-(1H-indazol-6-yl)cinnoline-3-carboxamide] | 15.8 nM
30 | Cc1cc2c(cnn2C)cc1-c1cccc2c(N)c(C(N)=O)nnc12 [Example 55, 4-amino-8-(1,6-dimethyl-1H-indazol-5-yl)cinnoline-3-carboxamide] | 39.8 nM
31 | Cc1cc(F)c2c(N)c(C(N)=O)nnc2c1-c1ccc2cn[nH]c2c1 [Example 56, 4-amino-5-fluoro-8-(1H-indazol-6-yl)-7-methylcinnoline-3-carboxamide] | 12.6 nM
32 | Cc1ccc2c(N)c(C(N)=O)nnc2c1-c1ccc2ccncc2c1 [Example 57, 4-amino-8-(isoquinolin-7-yl)-7-methylcinnoline-3-carboxamide] | 200 nM
33 | Cc1ccc2c(N)c(C(N)=O)nnc2c1-c1ccc2cnccc2c1 [Example 58, 4-amino-8-(isoquinolin-6-yl)-7-methylcinnoline-3-carboxamide] | 50.1 nM
34 | Cc1cc(F)c2c(N)c(C(N)=O)nnc2c1-c1ccc2[nH]ncc2c1 [Example 60, 4-amino-5-fluoro-8-(1H-indazol-5-yl)-7-methylcinnoline-3-carboxamide] | 7.94 nM
35 | CCc1ccc2c(N)c(C(N)=O)nnc2c1-c1ccc2cn[nH]c2c1 [Example 61, 4-amino-7-ethyl-8-(1H-indazol-6-yl)cinnoline-3-carboxamide] | 10 nM
36 | CCc1ccc2c(N)c(C(N)=O)nnc2c1-c1ccc2[nH]ncc2c1 [Example 62, 4-amino-7-ethyl-8-(1H-indazol-5-yl)cinnoline-3-carboxamide] | 5.01 nM
37 | Cc1ccc2c(N)c(C(N)=O)nnc2c1-c1ccc2c(c1)CCNC2=O [Example 63, 4-amino-7-methyl-8-(1-oxo-1,2,3,4-tetrahydroisoquinolin-6-yl)cinnoline-3-carboxamide] | 25.1 nM
38 | Cc1cc(-c2cc3[nH]ncc3cc2C)c2nnc(C(N)=O)c(N)c2c1 [Example 64, 4-amino-6-methyl-8-(5-methyl-1H-indazol-6-yl)cinnoline-3-carboxamide] | 10 nM
